The values below come from publication PMC6842527, “Molecular cloning and metabolomic characterization of the 5-enolpyruvylshikimate-3-phosphate synthase gene from Baphicacanthus cusia” (BMC Plant Biology, 2019).

For this assay, the target named is T1, BcEPSPS (5-enolpyruvylshikimate-3-phosphate synthase).
T1 construct: gene EPSPS; full-length coding region (518 aa) in pET-32a, His-tagged fusion BcEPSPS-His, expressed in E. coli BL21
Description: malachite green phosphate-release enzyme assay with purified recombinant BcEPSPS; Ki at […] S3P (IC50 […] also reported). The format is biochemical, Baphicacanthus cusia.

Consider `O=C(O)CNCP(=O)(O)O` [glyphosate], for which the Ki was found to be 46 nM.

A word on the Ki: it is the dissociation constant of the complex between target and ligand, obtained from inhibition or displacement.
